Laboratory results taken from the NIST ThermoML archive (doi:10.1016/j.fluid.2005.01.012).
Numbers after ± are expanded uncertainties.

experiment: refractive index (Na D-line) (dimensionless); settings: 293.1 K; 101.33 kPa; Liquid; Standard Abbe refractometry

Row | refractive index | SMILES
1 | 1.4291 ± 0.0008 | CCCCCCCCCCCCCC [tetradecane]
2 | 1.422 ± 0.0008 | CCCCCCCCCCCC [dodecane]
3 | 1.4362 ± 0.0008 | CCCCCCCCCCCCCCCCC [heptadecane]

Further lines, the compound ahead of its results:

Row | SMILES | refractive index
4 | CN1CCCC1=O [N-methylpyrrolidone] | 1.4696 ± 0.0008
5 | CCCc1ccccc1 [propylbenzene] | 1.4915 ± 0.0008
